Reference: the supplement of paper PMC10307832

Columns and labels:
Test in all cases: relative viability (nuclei count vs DMSO), 5 days (fraction); higher = more cells survive
[1] = compound: CC[C@@H](C)CNCC(=O)N1CCC2=C([C@@H]1COC3=CC=CC(=C3)C)C=CS2 [RU-SKI 43] + CCNC(=O)c1noc(-c2cc(C(C)C)c(O)cc2O)c1-c1ccc(CN2CCOCC2)cc1 [Luminespib] (partner 0.01 µM)
Summary of the method: (§1)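 The day after seeding in 1536-well plates, lung cancer cell lines were treated by pin tool with a single drug, or with a fixed anchor-drug dose together with five library-drug doses (not always all listed) in √10 steps. After 5 days, a combined fix-and-stain solution (final 0.05% Triton X-100, 1% formaldehyde, 1 ug/ml Hoechst) was added. Nuclei counted on 4× images gave relative viability as treated counts over vehicle counts, reported as the median of duplicate plates.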

[2] = compound: Cn1cc(-c2cnc3ccc4ccc(CS(=O)(=O)NCc5ccccn5)cc4c(=O)c3c2)cn1 [MK-8033] + CC(=O)Nc1cccc(-n2c(=O)n(C3CC3)c(=O)c3c(Nc4ccc(I)cc4F)n(C)c(=O)c(C)c32)c1 [Trametinib] (partner 0.02 µM)
Summary of the method: as §1

[3] = compound: CC[C@@H](C)CNCC(=O)N1CCC2=C([C@@H]1COC3=CC=CC(=C3)C)C=CS2 [RU-SKI 43] + CS(=O)(=O)N1CCN(Cc2cc3nc(-c4cccc5[nH]ncc45)nc(N4CCOCC4)c3s2)CC1 [Pictilisib] (partner 1 µM)
Summary of the method: as §1

[4] = compound: CC[C@@H](C)CNCC(=O)N1CCC2=C([C@@H]1COC3=CC=CC(=C3)C)C=CS2 [RU-SKI 43] + CC(C)C[C@H](NC(=O)[C@H](Cc1ccccc1)NC(=O)c1cnccn1)B(O)O [Bortezomib] (partner 0.002 µM)
Summary of the method: as §1

Cell Line | relative viability ([1]; first compound 0.1 µM) | relative viability ([1]; first compound 0.3162 µM) | relative viability ([1]; first compound 1 µM) | relative viability ([1]; first compound 3.162 µM) | relative viability ([1]; first compound 10 µM) | relative viability ([2]; first compound 0.02 µM) | relative viability ([2]; first compound 0.06325 µM) | relative viability ([2]; first compound 0.2 µM) | relative viability ([2]; first compound 0.6325 µM) | relative viability ([2]; first compound 2 µM) | relative viability ([3]; first compound 0.1 µM) | relative viability ([3]; first compound 0.3162 µM) | relative viability ([3]; first compound 1 µM) | relative viability ([3]; first compound 3.162 µM) | relative viability ([3]; first compound 10 µM) | relative viability ([4]; first compound 0.1 µM) | relative viability ([4]; first compound 0.3162 µM) | relative viability ([4]; first compound 1 µM) | relative viability ([4]; first compound 3.162 µM) | relative viability ([4]; first compound 10 µM)
NCI-H522 | 1.28 | 1.14 | 1.14 | 1.05 | 1.17 | 0.72 | 0.701 | 0.669 | 0.657 | 0.766 | – | – | – | – | – | – | – | – | – | –
NCI-H358 | 0.59 | 0.292 | 0.252 | 0.389 | 0.307 | 0.141 | 0.124 | 0.11 | 0.146 | 0.131 | 0.291 | 0.315 | 0.332 | 0.336 | 0.286 | – | – | – | – | –
NCI-H1755 | 0.5 | 0.3 | 0.515 | 0.472 | 0.301 | 0.804 | 0.767 | 0.74 | 0.702 | 0.732 | 0.384 | 0.524 | 0.532 | 0.48 | 0.367 | 0.978 | 1.14 | 1.04 | 0.941 | 0.986
LCLC-103H | 0.934 | 1.16 | 1.1 | 1.1 | 0.971 | 0.637 | 0.705 | 0.673 | 0.672 | 0.696 | 0.663 | 0.629 | 0.712 | 0.624 | 0.691 | 0.969 | 1.09 | 1.31 | 1.1 | 0.985
HOP-62 | 1 | 1.29 | 1.07 | 0.984 | 1.04 | 0.315 | 0.381 | 0.344 | 0.371 | 0.35 | 0.767 | 0.69 | 0.834 | 0.769 | 0.611 | 0.728 | 0.561 | 1.01 | 0.731 | 0.765
HCC-78 | – | – | – | – | – | 0.611 | 0.614 | 0.739 | 0.325 | 0.578 | 0.24 | 0.232 | 0.278 | 0.176 | 0.191 | 0.505 | 0.495 | 0.484 | 0.471 | 0.427
NCI-H650 | 0.748 | 0.861 | 0.901 | 0.852 | 0.727 | 1.06 | 1.02 | 0.973 | 0.939 | 0.884 | 0.947 | 0.793 | 0.829 | – | 0.926 | 1.02 | 0.779 | 1.1 | – | 0.891
NCI-H1563 | 0.51 | 0.502 | 0.51 | 0.529 | 0.495 | – | – | – | – | – | 0.682 | 0.653 | 0.689 | 0.701 | 0.646 | 0.882 | 0.828 | 0.888 | 0.797 | 0.797
ABC-1 | 0.68 | 0.434 | 0.485 | 0.673 | 0.811 | – | – | – | – | – | 0.676 | 0.842 | 0.753 | 0.701 | 0.772 | 0.286 | 0.351 | 0.35 | 0.285 | 0.312
Calu-6 | – | – | – | – | – | – | – | – | – | – | 0.918 | 1.14 | 0.977 | 0.912 | 0.722 | 1.1 | 0.966 | 1.04 | 1.1 | 0.974
EBC-1 | – | – | – | – | – | – | – | – | – | – | 0.345 | 0.283 | 0.429 | 0.316 | 0.196 | 0.469 | 0.428 | 0.652 | 0.451 | 0.382
NCI-H520 | 0.191 | 0.18 | 0.257 | 0.209 | 0.216 | 0.615 | 0.565 | 0.56 | 0.795 | 0.629 | 0.279 | 0.326 | 0.385 | 0.456 | 0.306 | 0.572 | 0.798 | 0.721 | 0.667 | 0.597
NCI-H322M | 0.858 | 0.932 | 0.877 | 0.884 | 0.727 | 0.527 | 0.565 | 0.488 | 0.585 | 0.476 | 0.586 | 0.469 | 0.559 | 0.51 | 0.482 | 1.2 | 1.3 | 1.3 | 1.24 | 1.28
201T | 1.06 | 1.06 | 1.04 | 1.06 | 1.03 | 0.778 | 0.76 | 0.709 | 0.782 | 0.73 | 0.71 | 0.544 | 0.737 | 0.662 | 0.67 | 1.09 | 1.09 | 1.17 | 1.12 | 1.07
RERF-LC-KJ | 1.25 | 1.01 | 1.44 | 1.3 | 1 | 0.818 | 0.843 | 0.812 | 0.828 | 0.812 | 0.535 | 0.529 | 0.61 | 0.548 | 0.476 | 1.12 | 1.39 | 1.17 | 1.2 | 1.2
A549 | – | – | – | – | – | – | – | – | – | – | 0.511 | 0.742 | 0.594 | 0.439 | 0.384 | – | – | – | – | –
NCI-H1648 | – | – | – | – | – | 0.499 | – | 0.408 | 0.499 | 0.432 | – | – | – | – | – | – | – | – | – | –
NCI-H1623 | 0.452 | 0.478 | 0.468 | 0.577 | 0.447 | – | – | – | – | – | – | – | – | – | – | – | – | – | – | –
NCI-H1651 | 0.697 | 0.9 | 0.915 | 0.807 | 0.658 | 0.823 | 0.846 | 0.845 | 0.809 | 0.861 | 0.606 | 0.783 | 0.76 | 0.621 | 0.728 | 0.93 | 1.1 | 1.01 | 0.931 | 0.947
NCI-H2405 | 0.639 | 0.474 | 0.543 | 0.736 | 0.486 | 0.601 | 0.619 | 0.496 | 0.603 | 0.667 | 0.393 | 0.34 | 0.436 | 0.472 | 0.333 | 0.957 | 1.03 | 1.02 | 0.936 | 0.773
